Source: patent US11467168B2, “Methods of identifying a moldulator of otopetrin-mediated proton translocation activity” (UNIVERSITY OF SOUTHERN CALIFORNIA, priority 2017, dated 2022)
Where “and” joins values, the source holds several entries; their conditions need not be identical. Equal entries are not always repeated.

Target: T1, Otop1 (Mus musculus, UniProt Q80VM9, G396A)
T1 construct: expressed in transfected cells; host or cells: HEK-293 cells (CRL-1573, ATCC), transient co-transfection with GFP, cDNA in pcDNA3
T1 sequence (Q80VM9 1-600 G396A): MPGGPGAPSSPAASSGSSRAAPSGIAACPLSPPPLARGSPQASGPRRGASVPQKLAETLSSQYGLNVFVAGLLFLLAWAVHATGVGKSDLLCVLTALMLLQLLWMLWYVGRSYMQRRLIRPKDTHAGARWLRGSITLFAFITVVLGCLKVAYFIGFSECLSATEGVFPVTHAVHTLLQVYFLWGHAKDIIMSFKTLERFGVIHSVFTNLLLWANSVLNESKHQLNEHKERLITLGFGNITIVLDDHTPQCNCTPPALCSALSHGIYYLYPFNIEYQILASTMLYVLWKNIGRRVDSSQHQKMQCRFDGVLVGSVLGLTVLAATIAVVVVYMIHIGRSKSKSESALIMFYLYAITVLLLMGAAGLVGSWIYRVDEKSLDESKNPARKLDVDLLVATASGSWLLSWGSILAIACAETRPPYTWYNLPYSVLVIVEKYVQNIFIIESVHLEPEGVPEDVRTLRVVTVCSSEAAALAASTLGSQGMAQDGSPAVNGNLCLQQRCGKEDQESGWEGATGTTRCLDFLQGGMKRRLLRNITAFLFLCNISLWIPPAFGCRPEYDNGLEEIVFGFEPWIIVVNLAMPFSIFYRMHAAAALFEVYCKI
Test: Zn2+ inhibition of Otop1 currents, whole-cell patch clamp in transfected HEK-293 cells
Assay type: cell-based
Conditions: Otop1-transfected HEK-293 cells, currents evoked by pH 5.5, Hill equation fit
Text: The transition metal Zn^2+ is a potent inhibitor of Hv1, binding to two external histidine residues that regulate gating^7,31,32. […] To gain insights into structural elements involved in ion permeation by Otop1, we measured its sensitivity to inhibition by Zn^2+.
Otop and GFP (5:1) were co-transfected into HEK-293 cells (CRL-1573, ATCC) using TransIT-LT1 Transfection Reagent (Mirus Bio Corporation, Madison, Wis.). Patch clamp recording and imaging experiments on GFP-positive cells were performed at room temperature ˜24-48 h after transfection.
Whole-cell patch clamp recording was performed as previously described^49. In brief, recordings were made with an Axopatch 200A or Axopatch 200B amplifier, digitized with a Digidata 1322a 16-bit data acquisition system, acquired with pClamp 8.2, and analyzed with Clampfit 8.2 (Molecular Devices, Palo Alto, Calif.). Records were sampled at 5 kHz and filtered at 1 kHz. Patch pipettes with resistance of 2-4 MΩ were fabricated from borosilicate glass, and only recordings in which a gigaohm seal was achieved were used in the analysis. For most experiments, after the whole cell configuration was achieved, the membrane potential was held at −80 mV, or ramped from −80 mV to +80 mV (1V/s) once per second. […]

Hill coefficient: 0.89 and 0.89±0.06 | IC50: 190 µM
SMILES: [Cl-].[Cl-].[Zn+2] [Zn^2+, ZnCl2]
